This passage reports inhibition and IC50 results from ChEMBL document CHEMBL2417541, “Aromatic glucosides from the seeds of Prunus davidiana” (J Nat Prod, 2013).

Assay [1] relates to Liver microsomes. Put plainly: Antioxidant activity in rat liver microsomes assessed as inhibition of Fe2+-cysteine-induced lipid peroxidation measured malondialdehyde level at 10^-6 M/L incubated for 15 mins prior to FeSO4 addition measured after 15 mins by TBA method relative to control. The class given is functional. Conditions: Microsome. Background: Microsomes from liver hold many membrane-bound enzymes, among them those of drug oxidation.

For assay [2], the system named is Liver microsomes. Put plainly: Antioxidant activity in rat liver microsomes assessed as inhibition of Fe2+-cysteine-induced lipid peroxidation measured malondialdehyde level at 10^-5 M/L incubated for 15 mins prior to FeSO4 addition measured after 15 mins by TBA method relative to control. In kind it is functional. Conditions: Microsome.
For assay [3], the system named is Bel-7402. Put plainly: Cytotoxicity against human Bel7402 cells. The class given is cell-based.
In assay [4] the test system is BGC-823. Put plainly: Cytotoxicity against human BGC823 cells. The class given is cell-based.
Assay [5] relates to A2780. Briefly: Cytotoxicity against human A2780 cells. In kind it is cell-based.
Assay [6] deals with A549. Put plainly: Cytotoxicity against human A549 cells. In kind it is cell-based.
Assay [7] concerns HCT-8. Put plainly: Cytotoxicity against human HCT8 cells. In kind it is cell-based.
Assay [8] concerns Liver microsomes. Briefly: Antioxidant activity in rat liver microsomes assessed as inhibition of Fe2+-cysteine-induced lipid peroxidation measured malondialdehyde level at 10^-4 M/L incubated for 15 mins prior to FeSO4 addition measured after 15 mins by TBA method relative to control. In kind it is functional. The note with it: Microsome.

Where only a bound is given, the exact number is not on record here.

On to `COc1cc(CO)ccc1O[C@@H]1O[C@H](COC(=O)c2ccccc2)[C@@H](O)[C@H](O)[C@H]1O`, for which the inhibition (commonly the relative decrease from the control value, in per cent) in assay [1] is 41%; in assay [2] it was 42%; in assay [8] it was 51%. In addition, the IC50 in assay [3], in assay [4], in assay [5], in assay [6] and in assay [7] was over 10 µM throughout.
Regarding `O=C(OC[C@H]1O[C@@H](OC[C@H](O)[C@@H](O)c2ccc(O)cc2)[C@H](O)[C@@H](O)[C@@H]1O)c1ccccc1`, the figures for the inhibition in assay [1], in assay [2] and in assay [8] were 57%, 64% and 88%, respectively. The IC50 in assay [3], in assay [4], in assay [5], in assay [6] and in assay [7] was over 10 µM throughout.
Turning to `N#C[C@H](O[C@@H]1O[C@H](CO[C@@H]2O[C@H](COC(=O)c3cccnc3)[C@@H](O)[C@H](O)[C@H]2O)[C@@H](O)[C@H](O)[C@H]1O)c1ccccc1`, the inhibition in assay [1] is 56%; in assay [2], 67%; in assay [8], 88%. Further, the concentration for half-maximal inhibition (IC50) in assay [3], in assay [4], in assay [5], in assay [6] and in assay [7] was over 10 µM in each case.
Consider `O=C(OC[C@H]1O[C@@H](O[C@@H](C(=O)O)c2ccccc2)[C@H](O)[C@@H](O)[C@@H]1O)c1ccccc1`, for which the inhibition in assay [1] came to 53%; in assay [2] it was 60%; in assay [8], 67%. The IC50 in assay [3], in assay [4], in assay [5], in assay [6] and in assay [7] was over 10 µM in each case.
Turning to `O=C(OC[C@H]1O[C@@H](OC[C@H]2O[C@@H](OC(=O)c3ccccc3)[C@H](O)[C@@H](O)[C@@H]2O)[C@H](O)[C@@H](O)[C@@H]1O)c1ccccc1`, the inhibition in assay [1] was determined as 56%; in assay [2], 66%; in assay [8], 56%. For the same molecule, the half-maximal inhibitory concentration (IC50) in assay [3], in assay [4], in assay [5], in assay [6] and in assay [7] was over 10 µM throughout.
Regarding `O=C(OC[C@H]1O[C@@H](OC[C@H]2O[C@@H](OCc3ccccc3)[C@H](O)[C@@H](O)[C@@H]2O)[C@H](O)[C@@H](O)[C@@H]1O)c1ccccc1`, the inhibition in assay [1] is 59%; in assay [2] it was 50%; in assay [8], 55%. The IC50 in assay [3], in assay [4], in assay [5], in assay [6] and in assay [7] was over 10 µM in each case.
For the molecule `CCOC(=O)[C@H](O[C@@H]1O[C@H](CO[C@@H]2O[C@H](CO)[C@@H](O)[C@H](O)[C@H]2O)[C@@H](O)[C@H](O)[C@H]1O)c1ccccc1`, the inhibition in assay [1] was determined as 56%; in assay [2] it was 51%; in assay [8], 51%. Also, the concentration for half-maximal inhibition (IC50) in assay [3], in assay [4], in assay [5], in assay [6] and in assay [7] was over 10 µM throughout.
